Measured values: the NIST ThermoML archive (doi:10.1021/je900665a)

Settings: Capillary rise

CC(C)OC(C)C [diisopropyl ether]
Settings	surface tension liquid-gas [mN/m]
248.07 K	22.7
253.23 K	22.06
258.1 K	21.55
263.18 K	21.02
268.33 K	20.52
273.46 K	19.93
278.5 K	19.26
283.18 K	18.81
288.18 K	18.3
293.16 K	17.82
298.1 K	17.26
303.17 K	16.76
308.08 K	16.18
313.27 K	15.66
318.17 K	15.09
323.19 K	14.58
328.12 K	14.1
333.12 K	13.68
338.11 K	13.15
343.1 K	12.57
348.1 K	12.11
353.1 K	11.57
358.15 K	11.01
363.17 K	10.56
368.17 K	10.04
373.17 K	9.698

CCCCCCC [heptane]
Settings	surface tension liquid-gas [mN/m]
298.13 K	20
303.18 K	19.58
308.12 K	18.97
313.18 K	18.41
318.17 K	17.97
323.2 K	17.48
328.15 K	16.92

CCOCC [diethyl ether]
Settings	surface tension liquid-gas [mN/m]
258.17 K	21.49
263.17 K	20.76
268.18 K	20.13
273.18 K	19.62
278.18 K	18.97
283.18 K	18.46
288.18 K	17.82
293.16 K	17.15
298.1 K	16.58
303.17 K	16
308.11 K	15.44
313.19 K	14.87
318.16 K	14.14
323.16 K	13.61
328.12 K	12.96
333.18 K	12.46
338.17 K	11.92
343.17 K	11.28
348.17 K	10.75
353.19 K	10.19
358.18 K	9.575
363.16 K	9.014
368.18 K	8.459
373.17 K	7.914
